Converted amounts (≈) assume the structure as drawn.
Assays:
[1] = system: Micrococcus luteus; assay: Antibiotic activity, filter paper disc agar diffusion MIC; format: cell-based; settings: filter paper discs on agar, 15 hours at 28°C
Procedure: The compounds of Formulae I, II, and IV and virginiamycin M₁ from Example 2 were assayed for antibiotic activity following a method described by Matsen and Barry, Manual of Clinical Microbiology, Lennette, Spaulding, and Truant, Eds., American Society for Microbiology, Washington, D.C., p. 418 (1974). The minimal inhibitory concentrations (MIC) were determined by applying serial dilutions of the compounds of Formulae I, III, and IV and virginiamycin M₁ to standard filter paper discs. The concent↑ation of the test compounds ↑anged f↑om […] to 3.0 µg per disc in 20 µl of diluent. The test organism, Micrococcus luteus, was innoculated on the surface of an agar based nutrient medium in petri plates and the discs placed on the surface of the medium. The nutrient media consisted of nutrient broth supplemented with 0.2% yeast extract and 1.5% agar. The innoculated plates were incubated for 15 hours at 28°C and the zones of inhibition determined. The MIC of each compound was determined by the method described in Matsen and Barry, supra.

[2] = target: T1, Gastrin Receptor (Cavia porcellus, UniProt H0VZC5); assay: Gastrin receptor binding in guinea pig gastric glands (125I-gastrin); settings: ¹²⁵I-gastrin, 25°C for 30 minutes, read-out: IC₅₀
T1 construct: from tissue; host or cells: guinea pig gastric mucosal glands
T1 sequence (H0VZC5 1-426): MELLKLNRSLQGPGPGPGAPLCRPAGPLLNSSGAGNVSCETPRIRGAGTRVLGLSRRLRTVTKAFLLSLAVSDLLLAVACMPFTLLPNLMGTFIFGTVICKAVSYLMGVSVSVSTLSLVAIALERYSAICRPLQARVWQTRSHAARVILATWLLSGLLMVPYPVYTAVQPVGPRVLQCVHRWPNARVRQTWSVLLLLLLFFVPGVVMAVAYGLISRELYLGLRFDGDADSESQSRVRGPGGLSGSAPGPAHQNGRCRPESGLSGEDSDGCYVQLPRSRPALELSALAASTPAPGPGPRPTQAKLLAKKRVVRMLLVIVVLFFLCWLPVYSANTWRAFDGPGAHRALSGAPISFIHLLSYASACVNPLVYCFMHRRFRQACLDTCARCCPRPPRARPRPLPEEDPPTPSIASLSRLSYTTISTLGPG
Procedure: Guinea pig gastric mucosal glands were prepared by the procedure of Praissman et al., J. Receptor Res. 3:647 (1983). Stomachs from male Hartley guinea pigs (250-400 g body weight) were washed thoroughly and minced with fine scissors in HEPES buffer consisting of the following: 130 mM NaCl, 12 mM NaHCO₃, 3 mM NaH₂PO₄, 3 mM […], 3 mM K₂HPO₄, 2 mM MgSO₄, 1 mM CaCl₂, 5 mM glucose and 4 mM L-glutamine, 25 mM HEPES at pH 7.4. The minced tissues were washed and incubated in a 37°C shaker bath for 40 minutes, with HEPES buffer containing 0.1% collagenase and 0.1% bovine serum albumin (BSA), and bubbled with 95% O₂ and 5% CO₂. The tissues were passed twice through a 5 ml glass syringe to liberate the gastric glands, and then filtered through 200 mesh nylon. The filtered glands were centrifuged at 270 ^x g for 5 minutes and washed twice by resuspension and centrifugation.
The washed guinea pig gastric glands were resuspended in 25 ml of HEPES buffer containing 0.25 mg/ml of bacitracin. For binding studies, 14.2 µl of 50% MeOH/H₂O (for total binding) or gastrin (1 µM final concentration, for nonspecific binding) or broth or test compound from Examples 2, 3 or 4 and 20 µl of ¹²⁵I-gastrin (New England Nuclear [NEN], 20,000 cpm 20 µl) were added to 220 µl of gastric glands in triplicate tubes which were aerated with 95% O₂ and 5% CO₂ and capped. The reaction mixtures, after incubation at 25°C for 30 minutes in a shaking water bath, were filtered under reduced pressure on glass GF/B filters (Whatman) and immediately washed with 3 ^x 4 ml of HEPES buffer containing 0.1% BSA fraction V. The radioactivity on the filters was measured using a Beckman 5500 gamma counter for ¹²⁵I-gastrin.

Row | SMILES | MIC [1] [µM] | IC50 [2] [nM]
1 | CC1=C\C=C\[C@@H](O)Cc2nc(co2)C(=O)N2CCC=C2C(=O)O[C@H](C(C)C)[C@H](C)/C=C/C(=O)NC\C=C\1 [Compound I] | 90 (≈ 45.9 µg/mL) | 12
2 | CC1=C\C=C\C(=O)Cc2nc(co2)C(=O)N2CCC=C2C(=O)O[C@H](C(C)C)[C@H](C)/C=C/C(=O)NC\C=C\1 [Compound III] | 250 (≈ 127 µg/mL) | 90
3 | CC1=C\C=C\[C@H](O)Cc2nc(co2)C(=O)N2CCC=C2C(=O)O[C@H](C(C)C)[C@H](C)/C=C/C(=O)NC\C=C\1 [Compound II] | – | 13

Second part, the molecule after the results:

Row | MIC [1] [µM] | IC50 [2] [nM] | SMILES
4 | 1.5 (≈ 0.788 µg/mL) | 710 | CC1=C\[C@@H](O)CC(=O)Cc2nc(co2)C(=O)N2CCC=C2C(=O)O[C@H](C(C)C)[C@H](C)/C=C/C(=O)NC\C=C\1 [Virginiamycin M₁, reference compound]
5 | 15 (≈ 7.64 µg/mL) | 360 | CC1=C\CCC(=O)Cc2nc(co2)C(=O)N2CCC=C2C(=O)O[C@H](C(C)C)[C@H](C)/C=C/C(=O)NC\C=C\1 [IV]

Source: patent EP0269322B1, “Virginiamycin analogs” (Merck & Co., Inc., priority 1986, dated 1988)
